The values that follow come from patent US20230123334A1, “AMINO LIPID COMPOUND, PREPARATION METHOD THEREFOR, AND APPLICATION THEREOF” (SHENZHEN SHENXIN BIOTECHNOLOGY CO., LTD., priority 2020, published 2023).

One assay has as its system HEK293 cells. Kind of assay: Preliminary screening as mRNA vectors, EGFP mRNA transfection of HEK293 cells. It is filed as cell-based. The settings on record: HEK293 cells, 96-well plates, EGFP mRNA 50 ng per well; percentage of GFP fluorescent cells relative to total number of cells (Hoechst). Summed up:
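HEK293 cells in DMEM plus 10% FBS transfected in 96-well format with 50 ng EGFP mRNA per well; Lipofectamine2000 served as positive control. Read-out is the percentage of GFP-fluorescent cells among total cells, counted by Hoechst nuclear stain.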
`CCCCCCCCCCCCCCCNc1nc(NCCCCCCCCCCC)nc(NCCCN2CCN(C)CC2)n1` [Compound N11N15D9]: the “Absolute mRNA transfection efficiency in HEK293 cells” value (from here on “Absolute mRNA transfection efficiency”) is on record as 0.3%.

For `CCCCCCCCCCCCCCCNc1nc(NCCCCCCCCCCC)nc(NCC2CCN(C)CC2)n1` [Compound N11N15D10], the “Absolute mRNA transfection efficiency” value turned out to be 1.6%.

With `CCCCCCCCCCCCCCCCNc1nc(NCCCCCCCCCCC)nc(NCCN(C)C)n1` [Compound N11N16D1], the “Absolute mRNA transfection efficiency” value is reported as 0.6%.

For `CCCCCCCCCCCCCCCCNc1nc(NCCCCCCCCCCC)nc(NCCN2CCOCC2)n1` [Compound N11N16D2], the “Absolute mRNA transfection efficiency” value was determined as 1.0%.

As to `CCCCCCCCCCCCCCCCNc1nc(NCCCCCCCCCCC)nc(NCCN2CCCC2)n1` [Compound N11N16D3], the “Absolute mRNA transfection efficiency” value is on record as 3.6%.

For `CCCCCCCCCCCCCCCCNc1nc(NCCCCCCCCCCC)nc(NCCN2CCCCC2)n1` [Compound N11N16D4], the “Absolute mRNA transfection efficiency” value was determined as 0.0%.

Consider `CCCCCCCCCCCCCCCCNc1nc(NCCCCCCCCCCC)nc(NCCN2CCN(C)CC2)n1` [Compound N11N16D5], for which the “Absolute mRNA transfection efficiency” value is on record as 2.5%.

Turning to `CCCCCCCCCCCCCCCCNc1nc(NCCCCCCCCCCC)nc(NCCCN(C)C)n1` [Compound N11N16D6], the “Absolute mRNA transfection efficiency” value is 1.4%.

Regarding `CCCCCCCCCCCCCCCCNc1nc(NCCCCCCCCCCC)nc(NCCN(CC)CC)n1` [Compound N11N16D7], the “Absolute mRNA transfection efficiency” value turned out to be 0.7%.

As for `CCCCCCCCCCCCCCCCNc1nc(NCCCCCCCCCCC)nc(NCCCN2CCOCC2)n1` [Compound N11N16D8], the “Absolute mRNA transfection efficiency” value is reported as 0.4%.

For `CCCCCCCCCCCCCCCCNc1nc(NCCCCCCCCCCC)nc(NCCCN2CCN(C)CC2)n1` [Compound N11N16D9], the “Absolute mRNA transfection efficiency” value is listed as 0.9%.

Turning to `CCCCCCCCCCCCCCCCNc1nc(NCCCCCCCCCCC)nc(NCC2CCN(C)CC2)n1` [Compound N11N16D10], the “Absolute mRNA transfection efficiency” value is on record as 1.1%.

Regarding `CCCCCCCCCCCCCCCCCCNc1nc(NCCCCCCCCCCC)nc(NCCN(C)C)n1` [Compound N11N18D1], the “Absolute mRNA transfection efficiency” value was 7.2%.

Take `CCCCCCCCCCCCCCCCCCNc1nc(NCCCCCCCCCCC)nc(NCCN2CCOCC2)n1` [Compound N11N18D2]: the “Absolute mRNA transfection efficiency” value is given as 0.8%.

Consider `CCCCCCCCCCCCCCCCCCNc1nc(NCCCCCCCCCCC)nc(NCCN2CCCC2)n1` [Compound N11N18D3], for which the “Absolute mRNA transfection efficiency” value is given as 2.8%.

Consider `CCCCCCCCCCCCCCCCCCNc1nc(NCCCCCCCCCCC)nc(NCCN2CCCCC2)n1` [Compound N11N18D4], for which the “Absolute mRNA transfection efficiency” value came out at 2.3%.

In the case of `CCCCCCCCCCCCCCCCCCNc1nc(NCCCCCCCCCCC)nc(NCCN2CCN(C)CC2)n1` [Compound N11N18D5], the “Absolute mRNA transfection efficiency” value amounted to 0.0%.

For the next assay, the system named is HEK293 cells. Kind of assay: Preliminary screening as DNA vectors, GFP transfection of HEK293 cells. It is filed as cell-based. The settings on record: HEK293 cells; lipid/DOPE liposome with 75 ng plasmid DNA (psin-EGFP-IRES-Puro); number of cells expressing GFP divided by total number of nuclei (Hoechst). Summed up: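 HEK293 cells in DMEM/10% FBS transfected with 75 ng EGFP plasmid per well complexed with amino lipid/DOPE liposomes in pH 5.6 sodium acetate. Hoechst nuclear stain added 20-24 h post-transfection, then cells cultured another 20-24 h. Confocal imaging gives GFP-positive cells as % of total nuclei.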
For the molecule `CCCCCCCCCCCCCCCNc1nc(NCCCCCCCCCCC)nc(NCCCN2CCN(C)CC2)n1` [Compound N11N15D9], the “Absolute DNA transfection efficiency in HEK293 cells” value (“Absolute DNA transfection efficiency” below) worked out at 0.1%.

On to `CCCCCCCCCCCCCCCNc1nc(NCCCCCCCCCCC)nc(NCC2CCN(C)CC2)n1` [Compound N11N15D10], for which the “Absolute DNA transfection efficiency” value is 0.4%.

Take `CCCCCCCCCCCCCCCCNc1nc(NCCCCCCCCCCC)nc(NCCN(C)C)n1` [Compound N11N16D1]: the “Absolute DNA transfection efficiency” value was 0.4%.

As to `CCCCCCCCCCCCCCCCNc1nc(NCCCCCCCCCCC)nc(NCCN2CCOCC2)n1` [Compound N11N16D2], the “Absolute DNA transfection efficiency” value amounted to 0.0%.

For `CCCCCCCCCCCCCCCCNc1nc(NCCCCCCCCCCC)nc(NCCN2CCCC2)n1` [Compound N11N16D3], the “Absolute DNA transfection efficiency” value is listed as 1.2%.

`CCCCCCCCCCCCCCCCNc1nc(NCCCCCCCCCCC)nc(NCCN2CCCCC2)n1` [Compound N11N16D4]: the “Absolute DNA transfection efficiency” value was determined as 0.1%.

Regarding `CCCCCCCCCCCCCCCCNc1nc(NCCCCCCCCCCC)nc(NCCN2CCN(C)CC2)n1` [Compound N11N16D5], the “Absolute DNA transfection efficiency” value is recorded as 0.0%.

As to `CCCCCCCCCCCCCCCCNc1nc(NCCCCCCCCCCC)nc(NCCCN(C)C)n1` [Compound N11N16D6], the “Absolute DNA transfection efficiency” value came out at 0.2%.

Consider `CCCCCCCCCCCCCCCCNc1nc(NCCCCCCCCCCC)nc(NCCN(CC)CC)n1` [Compound N11N16D7], for which the “Absolute DNA transfection efficiency” value is given as 0.0%.

`CCCCCCCCCCCCCCCCNc1nc(NCCCCCCCCCCC)nc(NCCCN2CCOCC2)n1` [Compound N11N16D8]: the “Absolute DNA transfection efficiency” value amounted to 0.0%.

Consider `CCCCCCCCCCCCCCCCNc1nc(NCCCCCCCCCCC)nc(NCCCN2CCN(C)CC2)n1` [Compound N11N16D9], for which the “Absolute DNA transfection efficiency” value stood at 0.0%.

Take `CCCCCCCCCCCCCCCCNc1nc(NCCCCCCCCCCC)nc(NCC2CCN(C)CC2)n1` [Compound N11N16D10]: the “Absolute DNA transfection efficiency” value is 0.6%.

In the case of `CCCCCCCCCCCCCCCCCCNc1nc(NCCCCCCCCCCC)nc(NCCN(C)C)n1` [Compound N11N18D1], the “Absolute DNA transfection efficiency” value is recorded as 3.4%.

For `CCCCCCCCCCCCCCCCCCNc1nc(NCCCCCCCCCCC)nc(NCCN2CCOCC2)n1` [Compound N11N18D2], the “Absolute DNA transfection efficiency” value turned out to be 0.3%.

For the molecule `CCCCCCCCCCCCCCCCCCNc1nc(NCCCCCCCCCCC)nc(NCCN2CCCC2)n1` [Compound N11N18D3], the “Absolute DNA transfection efficiency” value turned out to be 0.6%.

`CCCCCCCCCCCCCCCCCCNc1nc(NCCCCCCCCCCC)nc(NCCN2CCCCC2)n1` [Compound N11N18D4]: the “Absolute DNA transfection efficiency” value was found to be 1.9%.

As to `CCCCCCCCCCCCCCCCCCNc1nc(NCCCCCCCCCCC)nc(NCCN2CCN(C)CC2)n1` [Compound N11N18D5], the “Absolute DNA transfection efficiency” value came out at 1.4%.
